According to US20070092558A1, “Methods of Preparing Targeted Immunoliposomes” (priority 2005, published 2007):

Tests used:
[1] = test system: A431 (epidermoid cancer cells); details: 0-18 μg/ml [DOX], 1-hour treatment, 72-hour incubation, FIG. 3B
[2] = test system: MD-MBA 231 (breast cancer cells); assay: cytotoxicity assay (ATPlite luminescence), 1 h treatment then 72 h incubation; details: MD-MBA 231 cells, 0-18 μg/ml [DOX], FIG. 3A

COc1cccc2c1C(=O)c1c(O)c3c(c(O)c1C2=O)C[C@@](O)(C(=O)CO)C[C@@H]3O[C@H]1C[C@H](N)[C@H](O)[C@H](C)O1 [free doxorubicin, doxorubicin] was tested, and the “cytotoxicity (cell viability)” value [1] was “concentration effects on cell viability” and the “cytotoxicity (cell viability)” value [2] was “concentration effects on cell viability”.
